Earlier results on one compound are cited in US11357716B2, “Sunscreen compositions” (Kobo Products, Inc., priority 2016, dated 2022).

For data set [1] the following is noted: Active: BEMT 4%.
The conditions of data set [2]: Active: BEMT 4%. The source holds these as a separate data set.

For the compound `CCCCC(CC)COc1ccc(-c2nc(-c3ccc(OC)cc3)nc(-c3ccc(OCC(CC)CCCC)cc3O)n2)c(O)c1` (centres unmarked) [BEMT, bis-ethylhexyloxyphenol methoxyphenyl triazine], the SPF in vivo entry in data set [1] was “in vivo = 7.3 ± 1.2”. The UVA-PF in vivo entry in data set [2] is listed as “in vivo = 7.6 ± 2.2”.
